Measured values as given in patent publication US20250171438A1 (Agios Pharmaceuticals, Inc., priority 2022, published 2025).

These compounds were tested against T1, human PAH with the R408W mutation (Homo sapiens, UniProt P00439, R408W) (assay: Cell Based Phenylalanine Flux Assay). Settings: A375 cells expressing human R408W PAH; 24 hrs compound incubation; 13C-Tyrosine by LC-MS; average where tested multiple times; read-out: AC50.
T1 construct: expressed in transfected cells
T1 sequence (P00439 1-452 R408W): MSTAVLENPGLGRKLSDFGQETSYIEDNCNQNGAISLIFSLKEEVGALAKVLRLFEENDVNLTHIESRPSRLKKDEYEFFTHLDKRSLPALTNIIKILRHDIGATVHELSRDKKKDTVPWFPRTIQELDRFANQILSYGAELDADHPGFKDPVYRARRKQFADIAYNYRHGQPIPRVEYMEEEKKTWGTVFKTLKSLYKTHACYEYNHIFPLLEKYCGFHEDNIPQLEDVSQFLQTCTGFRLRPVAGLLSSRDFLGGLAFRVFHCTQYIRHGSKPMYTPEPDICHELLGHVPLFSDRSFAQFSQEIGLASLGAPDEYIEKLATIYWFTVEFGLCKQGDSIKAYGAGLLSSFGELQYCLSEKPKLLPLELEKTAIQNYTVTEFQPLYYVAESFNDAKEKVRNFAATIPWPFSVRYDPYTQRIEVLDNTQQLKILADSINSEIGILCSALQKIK
Set-up: scale not given here
Compound O=C(c1cnc(-c2c(F)cccc2F)s1)N1CCc2[nH]cnc2[C@@H]1c1nc2c(F)cccc2s1 [Example 1503, (R)-(2-(2,6-difluorophenyl)thiazol-5-yl)(4-(4-fluorobenzo[d]thiazol-2-yl)-6,7-dihydro-1H-imidazo[4,5-c]pyridin-5(4H)-yl)methanone] has an AC50 of less than 0.5 µM. In the case of O=C(N1CCC1)N1CCc2[nH]cnc2[C@H]1c1nc2ccccc2s1 [Example 1691, (S)-azetidin-1-yl(4-(benzo[d]thiazol-2-yl)-6,7-dihydro-1H-imidazo[4,5-c]pyridin-5(4H)-yl)methanone], the AC50 is reported as less than 0.5 µM. Work on O=C(c1cnn(C(F)F)c1)N1CCc2[nH]cnc2[C@H]1c1nc2ccccc2s1 [Example 1409] yielded an AC50 of 0.5 to 1 µM. Compound CN(C)CCc1nc(C(F)(F)F)c(C(=O)N2CCc3[nH]cnc3[C@H]2c2nc3c(F)cccc3s2)o1 [Example 1675] has an AC50 of less than 0.5 µM. In the case of O=C(c1nnc(-c2ccn(C(F)F)n2)o1)N1CCc2[nH]cnc2[C@@H]1c1nc2ccccc2s1 [Example 1874, (R)-(4-(benzo[d]thiazol-2-yl)-6,7-dihydro-1H-imidazo[4,5-c]pyridin-5(4H)-yl)(5-(1-(difluoromethyl)-1H-pyrazol-3-yl)-1,3,4-oxadiazol-2-yl)methanone], the AC50 is reported as 1 to 5 µM. Compound O=C(c1nccs1)N1CCc2[nH]cnc2[C@@H]1c1nc2ccccc2[nH]1 [Example 902, (R)-(4-(1H-benzo[d]imidazol-2-yl)-6,7-dihydro-1H-imidazo[4,5-c]pyridin-5(4H)-yl)(thiazol-2-yl)methanone] has an AC50 greater than 5 µM. O=C(c1cnsc1)N1CCc2[nH]cnc2[C@H]1c1nc2ccccc2s1 [Example 1061] was tested, and the AC50 was 0.5 to 1 µM. Work on O=C(c1cnc(-c2ccccn2)o1)N1CCc2[nH]cnc2[C@@H]1c1nc2ccccc2s1 [Example 1318, (R)-(4-(benzo[d]thiazol-2-yl)-6,7-dihydro-1H-imidazo[4,5-c]pyridin-5(4H)-yl)(2-(pyridin-2-yl)oxazol-5-yl)methanone] yielded an AC50 of 1 to 5 µM. For O=C(c1ocnc1-c1ccccn1)N1CCc2[nH]cnc2[C@H]1c1nc2ccccc2s1 [Example 1450], the AC50 was 0.5 to 1 µM. With O=C(CC1CC1)N1CCc2[nH]cnc2[C@@H]1c1nc2cccc(F)c2s1 [Example 1258, (R)-2-cyclopropyl-1-(4-(7-fluorobenzo[d]thiazol-2-yl)-6,7-dihydro-1H-imidazo[4,5-c]pyridin-5(4H)-yl)ethanone] the AC50 was 0.5 to 1 µM. Compound Cc1nc(-c2ccccn2)oc1C(=O)N1CCc2[nH]cnc2[C@H]1c1nc2ccccc2s1 [Example 1371] has an AC50 of less than 0.5 µM. In the case of O=C(c1oc(-c2ccccn2)nc1C(F)(F)F)N1CCc2[nH]cnc2[C@H]1c1nc2c(F)cccc2s1 [Example 1611, (S)-(4-(4-fluorobenzo[d]thiazol-2-yl)-6,7-dihydro-1H-imidazo[4,5-c]pyridin-5(4H)-yl)(2-(pyridin-2-yl)-4-(trifluoromethyl)oxazol-5-yl)methanone], the AC50 is reported as less than 0.5 µM. With O=C(c1cnn2ccc(Cl)cc12)N1CCc2[nH]cnc2[C@@H]1c1nc2cc(F)ccc2s1 [Example 1168, (R)-(5-chloropyrazolo[1,5-a]pyridin-3-yl)(4-(5-fluorobenzo[d]thiazol-2-yl)-6,7-dihydro-1H-imidazo[4,5-c]pyridin-5(4H)-yl)methanone] the AC50 was 1 to 5 µM. Compound O=C(c1cnn2ccccc12)N1CCc2[nH]cnc2[C@H]1c1nc2ccccc2s1 [Example 1009] has an AC50 of less than 0.5 µM. For “(R)-(4-bromothiazol-5-yl)(4-(4-fluorobenzo[d]thiazol-2-yl)-6,7-dihydro-1H-imidazo[4,5-c]pyridin-5(4H)-yl)methanone [Example 1618]”, the AC50 was 0.5 to 1 µM. CC(C)(O)c1ccc2c(C(=O)N3CCc4[nH]cnc4[C@H]3c3nc4ccccc4s3)cnn2c1 [Example 1473] was tested, and the AC50 was less than 0.5 µM. O=C(c1ncco1)N1CCc2[nH]cnc2[C@@H]1c1nc2cccc(F)c2s1 [Example 1280, (R)-(4-(7-fluorobenzo[d]thiazol-2-yl)-6,7-dihydro-1H-imidazo[4,5-c]pyridin-5(4H)-yl)(oxazol-2-yl)methanone] showed an AC50 of 1 to 5 µM. With O=C(c1cnn2ccccc12)N1CCc2[nH]cnc2[C@@H]1c1nc2cccc(Br)c2s1 [Example 1336, (R)-(4-(7-bromobenzo[d]thiazol-2-yl)-6,7-dihydro-1H-imidazo[4,5-c]pyridin-5(4H)-yl)(pyrazolo[1,5-a]pyridin-3-yl)methanone] the AC50 was 1 to 5 µM. Cn1ccc(-c2nnc(C(=O)N3CCc4[nH]cnc4[C@H]3c3nc4c(F)cccc4s3)o2)n1 [Example 1826, (S)-(4-(4-fluorobenzo[d]thiazol-2-yl)-6,7-dihydro-1H-imidazo[4,5-c]pyridin-5(4H)-yl)(5-(1-methyl-1H-pyrazol-3-yl)-1,3,4-oxadiazol-2-yl)methanone] gave an AC50 of less than 0.5 µM. O=C(c1cncs1)N1CCc2[nH]cnc2[C@@H]1c1nc2ccccc2[nH]1 [Example 915, (R)-(4-(1H-benzo[d]imidazol-2-yl)-6,7-dihydro-1H-imidazo[4,5-c]pyridin-5(4H)-yl)(thiazol-5-yl)methanone] gave an AC50 greater than 5 µM. O=C(c1cnn2cc(Cl)ccc12)N1CCc2[nH]cnc2[C@@H]1c1nc2c(F)cccc2s1 [Example 1238, (R)-(6-chloropyrazolo[1,5-a]pyridin-3-yl)(4-(4-fluorobenzo[d]thiazol-2-yl)-6,7-dihydro-1H-imidazo[4,5-c]pyridin-5(4H)-yl)methanone] was tested, and the AC50 was 1 to 5 µM. O=C(c1cncs1)N1CCc2[nH]cnc2[C@@H]1c1ncc(-c2ccccc2)s1 [Example 2146, (R)-(4-(5-phenylthiazol-2-yl)-6,7-dihydro-1H-imidazo[4,5-c]pyridin-5(4H)-yl)(thiazol-5-yl)methanone] showed an AC50 greater than 5 µM. In the case of O=C(c1oc(CN2CCOCC2)nc1C(F)(F)F)N1CCc2[nH]cnc2[C@H]1c1nc2ccccc2s1 [Example 1627], the AC50 is reported as less than 0.5 µM. CC(C)(F)c1ncc(C(=O)N2CCc3[nH]cnc3[C@H]2c2nc3ccccc3s2)o1 [Example 1455] gave an AC50 of less than 0.5 µM. O=C(c1ccno1)N1CCc2[nH]cnc2[C@@H]1c1nc2cc(F)ccc2s1 [Example 2154, (R)-(4-(5-fluorobenzo [d]thiazol-2-yl)-6,7-dihydro-1H-imidazo[4,5-c]pyridin-5(4H)-yl)(isoxazol-5-yl)methanone] was tested, and the AC50 was greater than 5 µM. O=C(c1ocnc1C(F)(F)F)N1CCc2[nH]cnc2[C@@H]1c1nc2ccccc2s1 [Example 1326, (R)-(4-(benzo[d]thiazol-2-yl)-6,7-dihydro-1H-imidazo[4,5-c]pyridin-5(4H)-yl)(4-(trifluoromethyl)oxazol-5-yl)methanone] was tested, and the AC50 was 0.5 to 1 µM. Compound O=C(c1ocnc1C(F)(F)F)N1CCc2[nH]cnc2[C@@H]1c1nc2c(F)cccc2s1 [Example 1494, (R)-(4-(4-fluorobenzo[d]thiazol-2-yl)-6,7-dihydro-1H-imidazo[4,5-c]pyridin-5(4H)-yl)(4-(trifluoromethyl)oxazol-5-yl)methanone] has an AC50 of less than 0.5 µM. With O=C(c1nnc(-c2ccc(F)cc2)o1)N1CCc2[nH]cnc2[C@@H]1c1nc2ccccc2s1 [Example 1370, (R)-(4-(benzo[d]thiazol-2-yl)-6,7-dihydro-1H-imidazo[4,5-c]pyridin-5(4H)-yl)(5-(4-fluorophenyl)-1,3,4-oxadiazol-2-yl)methanone] the AC50 was 1 to 5 µM.

Same assay, conditions: A375 cells expressing human R408W PAH; 24 hrs with compound; 13C-Tyrosine by LC-MS; average where tested multiple times
COCCc1ncc(C(=O)N2CC(C)c3[nH]cnc3C2c2nc3ccccc3s2)o1 [(4R,7R) diastereomer of 2-[5-[2-(2-methoxyethyl)-1,3-oxazole] was tested, and the AC50 was “E, E”. For O=C(c1oc(-c2ccccn2)nc1C(F)(F)F)N1CCc2[nH]cnc2[C@@H]1c1nc2ccccc2s1 (single isomer, unassigned), the AC50 was “E, E”.

Same assay, conditions: A375 cells expressing human R408W PAH; 24 hrs with compound; 13C-Tyrosine by LC-MS; average where tested multiple times; read-out: AC50
Work on O=C(CCc1nccs1)N1CCc2nc[nH]c2C1c1nc2cccc(Cl)c2[nH]1 (stereo not drawn) yielded an AC50 of 1 to 5 µM. Compound O=C(N1CCC(O)C1)N1CCc2[nH]cnc2C1c1nc2ccccc2s1 [4S enantiomer of (3R)-1-[4-(1,3-benzothiazol-2-yl)-1H,4H,5H,] has an AC50 of 1 to 5 µM. O=C(CCc1nccs1)N1CCc2[nH]cnc2C1c1nc2ccc(F)cc2[nH]1 (stereo not drawn) showed an AC50 of 1 to 5 µM. O=C(CCc1nccs1)N1CCc2[nH]cnc2C1c1nc2ccc(Cl)cc2s1 (stereo not drawn) was tested, and the AC50 was greater than 5 µM. In the case of O=C(c1nncs1)N1CCc2[nH]cnc2C1c1nc2ccc(F)cc2s1 (stereo not drawn), the AC50 is reported as 1 to 5 µM. With O=C(c1n[nH]c2ccccc12)N1CCc2[nH]cnc2C1c1nc2cc(F)ccc2s1 (stereo not drawn) the AC50 was greater than 5 µM. With O=C(Cc1nccs1)N1CCc2[nH]cnc2C1c1nc2c(F)cccc2s1 (stereo not drawn) the AC50 was 1 to 5 µM. In the case of CC(C)(O)Cn1ncc(C(=O)N2CCc3[nH]cnc3C2c2nc3c(F)cccc3s2)c1C(F)F (stereo not drawn), the AC50 is reported as 1 to 5 µM. With O=C(c1nc2ccccc2s1)N1CCc2[nH]cnc2C1c1nc2cc(F)ccc2s1 (stereo not drawn) the AC50 was greater than 5 µM. In the case of O=C(c1nc2ccccc2s1)N1CCc2[nH]cnc2C1c1nc2ccccc2[nH]1 (stereo not drawn), the AC50 is reported as greater than 5 µM. Work on Cn1ccc(C(=O)N2CCc3[nH]cnc3C2c2nc3c(F)cccc3s2)n1 (stereo not drawn) yielded an AC50 of 1 to 5 µM. Cn1nc(N)cc1C(=O)N1CCc2[nH]cnc2C1c1nc2c(F)cccc2s1 (stereo not drawn) showed an AC50 of 1 to 5 µM. In the case of O=C(c1cnn2ccc(F)cc12)N1CCc2[nH]cnc2C1c1nc2ccc(Br)cc2[nH]1 (stereo not drawn), the AC50 is reported as 1 to 5 µM. CN(C)CCc1nnc(C(=O)N2CCc3[nH]cnc3C2c2nc3ccccc3s2)o1 (stereo not drawn) gave an AC50 greater than 5 µM. Compound CC(C)(O)c1cc(C(=O)N2CCc3[nH]cnc3C2c2nc3c(F)cccc3s2)no1 (stereo not drawn) has an AC50 of 1 to 5 µM.
